# In a melting point compilation (Tetko et al.; mined from patent text by program, amines drawn as free bases though some values may be those of a salt):
row,Compound,melting point [°C]
1,CCCCCCCCNC(=O)N(CCCCCSc1nc(-c2ccccc2)c(-c2ccccc2)[nH]1)c1ccccc1,74 to 76
2,CCN1C(=O)N(c2cc(OC)cc(OC)c2)Cc2cnc(SC)nc21,134 to 136
3,CCN1CC(NC(=O)c2ccc(N)cc2)CN1CC,119 to 121
4,COC(=O)CCCc1cc2cc(Cl)ccc2n1S(=O)(=O)c1cccc2ccccc12,94 to 97
5,CC1CSC2=C(O1)c1cc(-c3ccccc3)ccc1C(=O)C2=O (centres undefined),190 to 192
6,OC1CSC(Oc2cncc(-c3c(F)cc(F)cc3F)c2)C(O)C1O (centres undefined),228
7,Cc1sc(C(=O)O)c2c1-c1c(cnn1CC(F)(F)F)CC2,250 to 251
8,Cc1ccc(-c2nc3cccnc3n2CC(N)=O)s1,> 250
9,CC1=C(c2ccc(CC(C)NCC(O)c3cccc(Cl)c3)cc2)CCC(=O)N1 (centres undefined),103 to 106
10,Cc1ccccc1-c1ccc(Cl)cc1C(=O)O,135 to 137
11,COc1ccc2c(c1)Cc1ccc(C(=O)O)cc1O2,259 to 261
12,CC(=O)OCCOCn1c(Cl)nc2c(Cl)c(Cl)c(Cl)c(Cl)c21,119
13,N[C@@H](CO)[C@@H](O)[C@H](O)[C@H](O)CO,129 to 130
14,ON=Cc1c(-c2ccccc2Cl)ccc2c1OCO2,182 to 183
15,O=C(O)Cc1nn(Cc2nc3cc(Br)ccc3s2)c(=O)c2ccccc12,214
16,O=C(c1ccc(O)cc1)c1ccc(O)c(Cl)c1Cl,208 to 210
17,CC(=O)NC(=S)NCC1CC2c3cccc4[nH]cc(c34)CC2N(C)C1 (centres undefined),204 to 205
18,Cc1cc(C(C)(O)c2ccc(C(F)(F)F)cn2)ccc1NC(=O)OC(C)(C)C (centres undefined),132 to 134
19,O=c1ccsc2c1[nH]c1ccccc12,242 to 243
20,O=C(NC(=S)N1CCC(=O)C(C(c2ccccc2)c2ccccc2)C1)c1ccccc1 (centres undefined),168 to 169
21,CC(C)(C)n1nnc(-c2ccccc2-c2ccc(C=O)cc2)n1,71 to 73
22,Cc1cc(NC(=O)C(C)(C)C)n(C)n1,86 to 88
23,O=[N+]([O-])c1ccc2nc(Cl)[nH]c2c1,235 to 237
24,Cc1cc(N2CCC3(CC2)OCCO3)c2cccc(Br)c2n1,156 to 158
25,CCCCc1nc2cccc(C(=O)OC)c2n1Cc1ccc(-c2ccccc2N2CC(=O)NC2=O)cc1,149 to 151

row,Compound,melting point [°C]
1,O=C1C2=C(NC(=O)C3(N2)SCCS3)c2ccccc21,> 300
2,COc1cc(Nc2c(C#N)cnc3cc4cc(OCCCN5CCOCC5)c(OC)cc4cc23)c(Cl)cc1Cl,205 to 208
3,C=C(C)Cc1c(C)c2c(c(C)c1O)CC(C)(C)N2C=O,166 to 168
4,CCOC(=O)C(CC(=O)c1ccc(Oc2ccc(C)cc2)cc1)SC(C)=O (centres undefined),85 to 86.5
5,COc1ncccc1C(=O)NCCc1ccncc1,84 to 87
6,N=C(N)Nc1ncc(CO)s1,168 to 170
7,CC1(C)CC(=O)Nc2ccc(-c3cccc(Cl)c3)cc21,211 to 215
8,CCCCc1nc(C(C)(C)O)c(C#N)[nH]1,171 to 172
9,Nc1nc2[nH]c(=S)sc2c(=O)[nH]1,> 300
10,C=C(CC(=O)OCC)c1cc(F)c2cc(OC)ccc2c1,50 to 52
11,O=S1(=O)N=CN(C2CCCC2)c2cc(Cl)c(Cl)cc21,189 to 191
12,Nc1cc(OCc2ccccc2)cc(OCc2ccccc2)c1,77 to 80
13,CCc1cc2c(-c3ccccc3Cl)c(NC(=O)Nc3ccc(F)cc3F)cnc2s1,217 to 218
14,Cc1ccccc1C(CCC(=O)O)Oc1cc(OCc2cccnc2)ccc1C#N (centres undefined),130 to 134
15,Cc1c(SCCCN2CCN(Cc3ccncc3)CC2)ccnc1CNc1ncncc1Cl,149 to 151
16,CCn1c(C#N)ccc1-c1ccc2c(c1)C(C)(C)OC(=S)N2,212 to 213
17,CC(=O)NCCSc1c(Cl)cc([N+](=O)[O-])c(C)c1[N+](=O)[O-],152
18,CC12CCC(O)CC1CCC1C2CCC2(C)C(C(=O)CSc3ccncc3)CCC12 (centres undefined),154 to 156
19,CCCn1c(=O)c2c(nc(/C=C/c3ccc(Cl)cc3)n2C)n(CCC)c1=O,175 to 187
20,Cc1cc(C=Cc2ccccc2OCC(O)CNC(C)(C)C)on1 (centres undefined),83 to 85
21,CC(C)CNC(=O)Nc1c(C(=O)c2ccccc2)[nH]c2cc(Cl)ccc12,235 to 238
22,Cc1oc(-c2ccco2)nc1CCOc1ccc([N+](=O)[O-])cn1,120 to 122
23,N#Cc1cc(N)ccc1N1CCC(N2CCSCC2)CC1,138
24,CC(C)CCN1C(=O)C(NC(=O)Nc2cccc(-c3nnn[nH]3)c2)C(=O)N(c2ccccc2)c2ccccc21 (centres undefined),220 to 222
